For the experiment, the target named is T1, human Nav1.8/b3 (Homo sapiens, UniProt Q9Y5Y9).
T1 construct: expressed in transfected cells; host or cells: CHO
The experiment is described as follows: Compound Profiling Human NaV1.8/β3 Cell Line—SyncroPatch384PE Assay (automated patch clamp, stably transfected CHO cells). The format is cell-based. Particulars: Nav1.8/b3 CHO cells. (In general: Patch clamp records ionic current or voltage across a cell membrane.)

[1] abbreviates: P1 (IC50, resting state block), P1 measurement, resting state block, holding potential −120 mV, fourth set of compounds.
[2] abbreviates: P2 (IC50, inactivated state block), P2 measurement, inactivated state block, inactivation step −35 mV 10 sec, fourth set of compounds.
[3] abbreviates: P1 (IC50, resting state block), P1 measurement, resting state block, holding potential −120 mV, second set of compounds.
Where [4] appears, read: P2 (IC50, inactivated state block), P2 measurement, inactivated state block, inactivation step −35 mV 10 sec, second set of compounds.
Setting [5] is: P1 (IC50, resting state block), P1 measurement, resting state block, holding potential −120 mV, third set of compounds.
The mark [6] stands for this setting: P2 (IC50, inactivated state block), P2 measurement, inactivated state block, inactivation step −35 mV 10 sec, third set of compounds.

Each structure is given as a SMILES string. Like-named read-outs stand apart in the source and are kept apart here.

The term IC50 denotes the concentration that gives 50% inhibition.

T1 sequence (Q9Y5Y9 whole entry): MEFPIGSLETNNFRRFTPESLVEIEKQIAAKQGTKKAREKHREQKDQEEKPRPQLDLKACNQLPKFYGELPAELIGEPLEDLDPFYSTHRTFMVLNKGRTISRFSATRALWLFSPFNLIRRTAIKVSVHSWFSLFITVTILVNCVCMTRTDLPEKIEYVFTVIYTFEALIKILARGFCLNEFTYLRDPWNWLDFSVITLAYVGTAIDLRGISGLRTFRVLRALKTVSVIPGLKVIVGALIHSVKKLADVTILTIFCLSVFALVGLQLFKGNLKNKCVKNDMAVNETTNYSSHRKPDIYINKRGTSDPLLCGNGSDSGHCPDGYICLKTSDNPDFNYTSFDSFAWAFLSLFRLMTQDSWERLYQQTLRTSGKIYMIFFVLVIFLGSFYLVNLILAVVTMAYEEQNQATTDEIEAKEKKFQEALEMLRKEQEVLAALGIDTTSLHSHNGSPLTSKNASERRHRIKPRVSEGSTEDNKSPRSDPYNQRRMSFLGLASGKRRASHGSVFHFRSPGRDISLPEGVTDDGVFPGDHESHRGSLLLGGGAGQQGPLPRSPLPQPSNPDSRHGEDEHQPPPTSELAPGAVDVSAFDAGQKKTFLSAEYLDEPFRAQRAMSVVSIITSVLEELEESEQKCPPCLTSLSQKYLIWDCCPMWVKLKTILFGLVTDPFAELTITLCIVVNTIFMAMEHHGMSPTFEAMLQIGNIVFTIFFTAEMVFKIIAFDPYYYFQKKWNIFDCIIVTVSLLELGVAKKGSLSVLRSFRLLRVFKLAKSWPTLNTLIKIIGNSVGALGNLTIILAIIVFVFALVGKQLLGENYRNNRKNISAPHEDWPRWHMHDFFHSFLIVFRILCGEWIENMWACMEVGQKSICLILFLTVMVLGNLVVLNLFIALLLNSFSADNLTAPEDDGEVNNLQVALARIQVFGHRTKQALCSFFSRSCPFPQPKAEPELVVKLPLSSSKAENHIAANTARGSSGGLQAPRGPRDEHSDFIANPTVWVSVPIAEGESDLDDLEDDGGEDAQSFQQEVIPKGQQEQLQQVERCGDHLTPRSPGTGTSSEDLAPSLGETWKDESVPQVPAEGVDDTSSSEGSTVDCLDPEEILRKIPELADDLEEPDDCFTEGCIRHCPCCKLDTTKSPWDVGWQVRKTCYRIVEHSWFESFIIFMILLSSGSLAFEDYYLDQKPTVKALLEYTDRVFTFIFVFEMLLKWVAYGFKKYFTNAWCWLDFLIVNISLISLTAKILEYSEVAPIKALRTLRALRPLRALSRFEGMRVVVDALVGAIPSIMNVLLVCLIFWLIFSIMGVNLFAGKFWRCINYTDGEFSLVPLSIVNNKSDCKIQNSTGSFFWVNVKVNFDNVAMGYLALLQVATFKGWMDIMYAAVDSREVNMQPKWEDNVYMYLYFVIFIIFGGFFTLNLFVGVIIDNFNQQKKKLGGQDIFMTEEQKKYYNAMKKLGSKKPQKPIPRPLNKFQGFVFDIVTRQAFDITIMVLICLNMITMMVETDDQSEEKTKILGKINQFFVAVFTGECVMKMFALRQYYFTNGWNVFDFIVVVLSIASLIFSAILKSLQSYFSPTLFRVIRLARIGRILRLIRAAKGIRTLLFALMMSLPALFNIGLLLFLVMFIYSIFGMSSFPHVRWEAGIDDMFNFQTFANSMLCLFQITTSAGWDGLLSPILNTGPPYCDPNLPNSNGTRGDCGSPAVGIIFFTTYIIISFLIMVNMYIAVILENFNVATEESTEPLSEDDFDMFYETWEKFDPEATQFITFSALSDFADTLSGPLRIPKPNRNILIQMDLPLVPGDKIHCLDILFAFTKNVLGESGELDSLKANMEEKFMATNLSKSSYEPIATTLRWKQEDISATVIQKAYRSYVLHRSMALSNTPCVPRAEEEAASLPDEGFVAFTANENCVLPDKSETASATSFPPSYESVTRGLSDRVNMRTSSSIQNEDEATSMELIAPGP
T1 sequence (Q9NY72 23-215 partner): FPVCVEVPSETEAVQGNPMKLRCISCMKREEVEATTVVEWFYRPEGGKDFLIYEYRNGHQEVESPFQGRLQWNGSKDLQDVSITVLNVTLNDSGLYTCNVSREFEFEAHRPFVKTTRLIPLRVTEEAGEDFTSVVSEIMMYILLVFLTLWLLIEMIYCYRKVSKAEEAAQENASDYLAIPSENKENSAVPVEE

For `Cc1nc(F)ccc1Oc1ncc(C(F)(F)F)c(C)c1C(=O)Nc1cccc([S@@](C)(=O)=NC(=O)CO)c1` [Example 12D, (R)-2-((6-fluoro-2-methylpyridin-3-yl)oxy)-N-(3-(N-(2-hydroxyacetyl)-S-methylsulfonimidoyl)phenyl)-4-methyl-5-(trifluoromethyl)nicotinamide], the IC50 is less than 5 nM under setting [1] and less than 5 nM under setting [2].
Consider `[2H]C([2H])([2H])c1nc(F)ccc1Oc1cc(C(F)(F)F)c(Cl)cc1C(=O)Nc1ccnc([S@](C)(=N)=O)c1` [Example 13A, (R)-5-chloro-2-((6-fluoro-2-(methyl-d3)pyridin-3-yl)oxy)-N-(2-(S-methylsulfonimidoyl)pyridin-4-yl)-4-(trifluoromethyl)benzamide], for which the IC50 (P1 measurement, resting state block, holding potential −120 mV, first set of compounds, read-out: P1 (IC50, resting state block)) is less than 5 nM and the IC50 (P2 measurement, inactivated state block, inactivation step −35 mV 10 sec, first set of compounds, read-out: P2 (IC50, inactivated state block)) was less than 5 nM.
With `Cc1nc(F)ccc1Oc1cc(C(F)(F)F)ccc1C(=O)Nc1cccc([S@@](C)(=O)=NC(=O)[C@@H](C)O)c1` [Example 13B, 2-((6-fluoro-2-methylpyridin-3-yl)oxy)-N-(3-((R)—N—((R)-2-hydroxypropanoyl)-S-methylsulfonimidoyl)phenyl)-4-(trifluoromethyl)benzamide], the IC50 by setting is: under setting [3], 5 to 50 nM; under setting [4], 5 to 50 nM.
As to `Cc1nc(F)ccc1Oc1nnc(C(F)(F)F)c(C)c1C(=O)Nc1cccc(S(N)(=O)=O)c1` [Example 13C, 3-((6-fluoro-2-methylpyridin-3-yl)oxy)-5-methyl-N-(3-sulfamoylphenyl)-6-(trifluoromethyl)pyridazine-4-carboxamide], the IC50 was less than 5 nM under setting [5] and less than 5 nM under setting [6].
For the molecule `Cc1nc(F)ccc1Oc1ncc(C(F)(F)F)c(C)c1C(=O)Nc1cccc([S@@](C)(=O)=NC(=O)[C@H](C)O)c1` [Example 13D, 2-((6-fluoro-2-methylpyridin-3-yl)oxy)-N-(3-((R)—N—((S)-2-hydroxypropanoyl)-S-methylsulfonimidoyl)phenyl)-4-methyl-5-(trifluoromethyl)nicotinamide], the IC50 is less than 5 nM under setting [1] and less than 5 nM under setting [2].
As to `Cc1nc(F)ccc1Oc1cc(C(F)(F)F)c(Cl)cc1C(=O)Nc1cccc([S@@](C)(=O)=NCCN)c1` [Example 14A, (R)—N-(3-(N-(2-aminoethyl)-S-methylsulfonimidoyl)phenyl)-5-chloro-2-((6-fluoro-2-methylpyridin-3-yl)oxy)-4-(trifluoromethyl)benzamide], the half-maximal inhibitory concentration (IC50) is less than 5 nM (P1 (IC50, resting state block), P1 measurement, resting state block, holding potential −120 mV, first set of compounds) and less than 5 nM (P2 (IC50, inactivated state block), P2 measurement, inactivated state block, inactivation step −35 mV 10 sec, first set of compounds).
With `Cc1nc(F)ccc1Oc1cc(C(F)(F)F)ccc1C(=O)Nc1cccc([S@@](C)(=O)=NC(=O)CN)c1` [Example 14B, (R)-2-((6-fluoro-2-methylpyridin-3-yl)oxy)-N-(3-(N-glycyl-S-methylsulfonimidoyl)phenyl)-4-(trifluoromethyl)benzamide], the IC50 under setting [3] lay in the range of 5 to 50 nM and the IC50 under setting [4] was 5 to 50 nM.
Consider `Cc1nc(F)ccc1Oc1ncc(C(F)(F)F)c(C)c1C(=O)Nc1cccc([S@@](C)(=O)=NC(=O)[C@H]2CCCO2)c1` [Example 14D, 2-((6-fluoro-2-methylpyridin-3-yl)oxy)-4-methyl-N-(3-((R)—S-methyl-N—((R)-tetrahydrofuran-2-carbonyl)sulfonimidoyl)phenyl)-5-(trifluoromethyl)nicotinamide], for which the IC50 by setting is: under setting [1], less than 5 nM; under setting [2], less than 5 nM.
With `Cc1nc(F)ccc1Oc1ccc(C(F)(F)F)c(F)c1C(=O)Nc1cccc([S@@](C)(=O)=NC(=O)[C@@H](C)N)c1` [Example 15B, N-(3-((R)—N-(D-alanyl)-S-methylsulfonimidoyl)phenyl)-2-fluoro-6-((6-fluoro-2-methylpyridin-3-yl)oxy)-3-(trifluoromethyl)benzamide], the IC50 reads like this: under setting [3], less than 5 nM; under setting [4], less than 5 nM.
`Cc1nc(F)ccc1Oc1ncc(C(F)(F)F)c(C)c1C(=O)Nc1cccc([S@@](C)(=O)=NC(=O)[C@H]2CCOC2)c1` [Example 15D, 2-((6-fluoro-2-methylpyridin-3-yl)oxy)-4-methyl-N-(3-((R)—S-methyl-N—((S)-tetrahydrofuran-3-carbonyl)sulfonimidoyl)phenyl)-5-(trifluoromethyl)nicotinamide] returned an IC50 under setting [1] of less than 5 nM and an IC50 under setting [2] of less than 5 nM.
`Cc1nc(F)ccc1Oc1ccc(C(F)(F)F)c(F)c1C(=O)Nc1cccc([S@@](C)(=O)=NC(=O)CN)c1` [Example 16B, (R)-2-fluoro-6-((6-fluoro-2-methylpyridin-3-yl)oxy)-N-(3-(N-glycyl-S-methylsulfonimidoyl)phenyl)-3-(trifluoromethyl)benzamide]: the IC50 under setting [3] is less than 5 nM and the IC50 under setting [4] is less than 5 nM.
As for `COc1cc(C#N)ccc1Oc1ncc(-c2ccc(C(F)F)cc2)c(C)c1C(=O)Nc1ccnc([S@@](C)(=N)=O)c1` [Example 16C, (S)-2-(4-cyano-2-methoxyphenoxy)-5-(4-(difluoromethyl)phenyl)-4-methyl-N-(2-(S-methylsulfonimidoyl)pyridin-4-yl)nicotinamide], the IC50 is more than 200 nM under setting [5] and more than 200 nM under setting [6].
As to `Cc1nc(F)ccc1Oc1ncc(C(F)(F)F)c(C)c1C(=O)Nc1cccc([S@@](C)(=O)=NC(=O)[C@@H](C)O)c1` [Example 16D, 2-((6-fluoro-2-methylpyridin-3-yl)oxy)-N-(3-((R)—N—((R)-2-hydroxypropanoyl)-S-methylsulfonimidoyl)phenyl)-4-methyl-5-(trifluoromethyl)nicotinamide], the IC50 by setting is: under setting [1], less than 5 nM; under setting [2], less than 5 nM.
For `CNCC(=O)N=[S@](C)(=O)c1cccc(NC(=O)c2c(Oc3ccc(F)nc3C)ccc(C(F)(F)F)c2F)c1` [Example 17B, (R)-2-fluoro-6-((6-fluoro-2-methylpyridin-3-yl)oxy)-N-(3-(S-methyl-N-(methylglycyl)sulfonimidoyl)phenyl)-3-(trifluoromethyl)benzamide], the IC50 is, setting by setting: under setting [3], less than 5 nM; under setting [4], less than 5 nM.
For the molecule `COc1cc(C#N)ccc1Oc1ncc(-c2ccc(C(F)F)cc2)c(C)c1C(=O)Nc1ccnc([S@](C)(=N)=O)c1` [Example 17C, (R)-2-(4-cyano-2-methoxyphenoxy)-5-(4-(difluoromethyl)phenyl)-4-methyl-N-(2-(S-methylsulfonimidoyl)pyridin-4-yl)nicotinamide], the IC50 reads like this: under setting [5], more than 200 nM; under setting [6], more than 200 nM.
In the case of `Cc1nc(F)ccc1Oc1ncc(C(F)(F)F)c(C)c1C(=O)Nc1cccc([S@@](C)(=O)=NC(=O)[C@@H]2C[C@@H](O)CN2)c1` [Example 17D, 2-((6-fluoro-2-methylpyridin-3-yl)oxy)-N-(3-((R)—N-((2S,4R)-4-hydroxypyrrolidine-2-carbonyl)-S-methylsulfonimidoyl)phenyl)-4-methyl-5-(trifluoromethyl)nicotinamide], the IC50 is less than 5 nM under setting [1] and less than 5 nM under setting [2].
With `Cc1nc(F)ccc1Oc1ccc(C(F)(F)F)c(F)c1C(=O)Nc1cccc([S@@](C)(=O)=NC(=O)[C@H](C)O)c1` [Example 18B, 2-fluoro-6-((6-fluoro-2-methylpyridin-3-yl)oxy)-N-(3-((R)—N—((S)-2-hydroxypropanoyl)-S-methylsulfonimidoyl)phenyl)-3-(trifluoromethyl)benzamide], the IC50 by setting is: under setting [3], less than 5 nM; under setting [4], less than 5 nM.
In the case of `Cc1nc(F)ccc1Oc1nnc(C(F)(F)F)c(C)c1C(=O)Nc1cccc([S@@](C)(=O)=NC(=O)[C@H](C)O)c1` [Example 18D, 3-((6-fluoro-2-methylpyridin-3-yl)oxy)-N-(3-((R)—N—((S)-2-hydroxypropanoyl)-S-methylsulfonimidoyl)phenyl)-5-methyl-6-(trifluoromethyl)pyridazine-4-carboxamide], the IC50 is less than 5 nM under setting [1] and less than 5 nM under setting [2].
With `Cc1nc(F)ccc1Oc1ccc(C(F)(F)F)c(F)c1C(=O)Nc1cccc([S@@](C)(=O)=NC(=O)[C@@H](C)O)c1` [Example 19B, 2-fluoro-6-((6-fluoro-2-methylpyridin-3-yl)oxy)-N-(3-((R)—N—((R)-2-hydroxypropanoyl)-S-methylsulfonimidoyl)phenyl)-3-(trifluoromethyl)benzamide], the IC50 by setting is: under setting [3], less than 5 nM; under setting [4], less than 5 nM.
`Cc1nc(F)ccc1Oc1nnc(C(F)(F)F)c(C)c1C(=O)Nc1cccc([S@@](C)(=O)=NC(=O)[C@@H](C)O)c1` [Example 19D, 3-((6-fluoro-2-methylpyridin-3-yl)oxy)-N-(3-((R)—N—((R)-2-hydroxypropanoyl)-S-methylsulfonimidoyl)phenyl)-5-methyl-6-(trifluoromethyl)pyridazine-4-carboxamide]: the IC50 reads like this: under setting [1], 5 to 50 nM; under setting [2], 5 to 50 nM.
Take `COc1cc(C#N)ccc1Oc1ncc(-c2ccc(C#N)cc2)c(C)c1C(=O)Nc1cccc([S@](C)(=N)=O)c1` [Example 20C, (R)-2-(4-cyano-2-methoxyphenoxy)-5-(4-cyanophenyl)-4-methyl-N-(3-(S-methylsulfonimidoyl)phenyl)nicotinamide]: the IC50 by setting is: under setting [5], 5 to 50 nM; under setting [6], 5 to 50 nM.

(Values after patent US20260356804A1, “SODIUM CHANNEL BLOCKING COMPOUNDS, DERIVATIVES THEREOF, AND METHODS OF THEIR USE” (LATIGO BIOTHERAPEUTICS, INC., priority 2022, published 2026).)
